Measured values: article PMC8570331, “8-Hydroxyquinoline-Amino Acid Hybrids and Their Half-Sandwich Rh and Ru Complexes: Synthesis, Anticancer Activities, Solution Chemistry and Interaction with Biomolecules” (International Journal of Molecular Sciences, 2021)

Tests used:
[1] = system: MRC-5 human lung fibroblast cell line; assay: MTT cytotoxicity assay in MRC-5; format: cell-based
Description: (§1) The in vitro cytotoxic activity of the novel water-soluble amino acid derivatives of HQCl and their RhCp* and RuCym complexes was measured by the thiazolyl blue tetrazolium bromide (MTT) assay in two human colon adenocarcinoma cell lines (Colo-205 and Colo-320) and in one non-tumoral human lung fibroblast cell line (MRC-5). The results are given in terms of IC50 values (Table 1). Colo-205 is a drug-sensitive cell line with a normal ABCB1 transporter expression pattern, while Colo-320 is multidrug-resistant and overexpresses the ABCB1 system.
(§2) All cell culture reagents were obtained from Sigma-Aldrich and plasticware from Sarstedt (Nümbrecht, Germany). Human colonic Colo-205 doxorubicin-sensitive and Colo-320/MDR-LRP multidrug-resistant adenocarcinoma and MRC-5 human embryonal lung fibroblast cell lines were purchased from LGC Promochem, Teddington, UK. The colonic adenocarcinoma cells were cultured in Roswell Park Memorial Institute (RPMI) 1640 medium supplemented with 10% heat-inactivated fetal bovine serum, 2 mM L-glutamine, 1 mM sodium pyruvate and […]. The MRC-5 cell line was cultured in Eagle’s Minimal Essential Medium (EMEM, Sigma-Aldrich, St. Louis, MO, USA) supplemented with a non-essential amino acid (NEAA) mixture (Sigma-Aldrich, St. Louis, MO, USA) a selection of vitamins, 10% heat-inactivated foetal bovine serum (FBS), 2 mM L-glutamine (Sigma-Aldrich, St. Louis, MO, USA), 1 mM Na-pyruvate (Sigma-Aldrich, St. Louis, MO, USA), nystatin (Sigma-Aldrich, St. Louis, MO, USA) and a penicillin-streptomycin mixture (Sigma-Aldrich, St. Louis, MO, USA) in con-centrations of 100 U/L and 10 mg/L, respectively. The cells were incubated at 37 °C, in a 5% CO2, 95% air atmosphere. All cell lines were detached with Trypsin-Versene (EDTA) solution for 5 min at 37 °C.
(§3) The tested compounds were dissolved in 10% (v/v) DMSO/H2O using 4 mM concentration. Doxorubicin (Merck, Darmstadt, Germany) was used as a positive control. Then stock solutions were diluted in complete culture medium, and two-fold serial dilutions of compounds were prepared in 100 μL of the medium, horizontally. The semi-adherent colonic adenocarcinoma cells were treated with Trypsin-Versene (EDTA) solution. They were adjusted to a density of 1 × 10^4 cells in 100 μL of RPMI 1640 or EMEM medium and were added to each well, with the exception of the medium control wells. The final volume of the wells containing compounds and cells was 200 μL. The plates containing Colo-205, Colo-320 or MRC-5 cells were incubated at 37 °C for 72 h; at the end of the incubation period, 20 μL of MTT solution (from a stock solution of 5 mg/mL) were added to each well. After incubation at 37 °C for 4 h, 100 μL of SDS solution (10% in 0.01 M HCI) were added to each well, and the plates were further incubated at 37 °C overnight. […] The IC50 values were obtained from at least 3 independent experiments.

[2] = system: Colo-205 human colon adenocarcinoma cell line (doxorubicin-sensitive); assay: MTT cytotoxicity assay in Colo-205; format: cell-based; details: 72 h incubation
Description: as §1, §2, §3

Ac-Phe–His–Ala-NH2 (FHA) = assay: Binding to the His model tripeptide FHA by 1H NMR; details: pH 7.4 (PBS’), 0.5 or 1 mM
Description: The slow binding kinetics indicates coordination binding mode, and the monodentate coordination of a side chain donor of HSA takes place most likely by the replacement of the co-ligand water or chloride, while the original bidentate (N,O) ligand remains coordinated, as it was also reported to analogous high stability RuCym and RhCp* complexes.
Similar reaction rates with FHA were found for the HQCl-D-Pro and HQCl-D-hPro complexes, and the reaction with this simple oligopeptide is much faster compared to the HSA. Conditional stability constants determined for the complex-FHA ternary species by ^1H NMR spectroscopic measurements (exemplary spectra are presented in Figure S29) are shown in Table 4. […] In all, this oligopeptide model can serve as a good binding model for surface-exposed side chains, although it provides limited information about binding events at more deeply located binding pockets of HSA, where the role of secondary interactions might be more significant.
Bruker Avance III HD Ascend 500 Plus instrument (Billerica, MA, USA) was used for NMR studies. ^1H NMR spectroscopic measurements were carried out with a WATERGATE water suppression pulse scheme in the presence of 10% (v/v) D2O in most cases. DSS internal standard was added to samples to obtain reference peaks. Complex concentrations were 0.5 mM or 1.0 mM, and 0.5 equiv. HSA was added. ^1H NMR titrations were carried out in the presence of 0.2 M KNO3. With the FHA model peptide, the measurements were performed at 0.5 or 1 mM metal complex concentrations, and 1:1, 1:2 or 2:1 peptide-to-metal complex ratios were applied. The computer program HypSpec was used to obtain stability constants.

[3] = target: T1, HSA site I (subdomain IIA) (Homo sapiens, UniProt P02768); assay: Trp-214 quenching, spectrofluorometry; format: binding; details: cHSA = 1 µM, pH 7.4 (PBS’), λEX = 295 nm
T1 construct: purchased Sigma-Aldrich A8763
Description: Tryptophan (Trp-214) quenching and dansylglycine (DG) site marker displacement experiments were performed to calculate binding constants for site I and II, respectively, similar to our previous works.
Fluorescence measurements were carried out on a Fluoromax (Horiba Jobin Yvon, Longjumeau, France) spectrofluorometer using 1 cm × 1 cm quartz cuvette. Samples contained 1 µM HSA or 1 µM DG and 1 µM HSA, or 20 µM (nucleotide) ct-DNA and 5 µM EB, and the complex concentration was varied between 0 and 40 µM or 0 and 300 µM, respectively. Spectroscopic measurements were carried out on individually prepared samples. Excitation wavelengths were 295 nm for Trp-214 quenching, 340 nm for the DG displacement studies and 510 nm for the ct-DNA–EB system. The calculated conditional stability constants for HSA–complex species were obtained using the computer program HypSpec. Calculations always were based on data obtained from at least two independent measurements. Self-absorbance and inner filter effect had to be taken into account, and corrections were made as was described in our former works.

T1 sequence (P02768 25-609): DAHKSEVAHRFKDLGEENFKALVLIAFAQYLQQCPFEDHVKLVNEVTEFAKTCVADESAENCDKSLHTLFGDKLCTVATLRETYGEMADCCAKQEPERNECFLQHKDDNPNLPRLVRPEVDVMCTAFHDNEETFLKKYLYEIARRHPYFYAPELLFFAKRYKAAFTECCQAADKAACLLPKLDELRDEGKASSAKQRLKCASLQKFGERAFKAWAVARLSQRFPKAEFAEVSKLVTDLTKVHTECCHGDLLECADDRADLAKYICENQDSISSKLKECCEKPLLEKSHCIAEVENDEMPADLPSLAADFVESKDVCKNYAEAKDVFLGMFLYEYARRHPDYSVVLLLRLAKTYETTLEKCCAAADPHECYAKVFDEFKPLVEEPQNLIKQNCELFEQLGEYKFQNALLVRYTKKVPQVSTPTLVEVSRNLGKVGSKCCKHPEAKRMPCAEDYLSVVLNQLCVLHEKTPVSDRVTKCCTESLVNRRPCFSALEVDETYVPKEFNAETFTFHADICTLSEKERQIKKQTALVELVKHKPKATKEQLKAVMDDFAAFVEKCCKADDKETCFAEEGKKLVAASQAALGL

With `O=C(O)[C@H]1CCCCN1Cc1cc(Cl)c2cccnc2c1O` [HQCl-D-hPro, (R)-5-chloro-7-((homoproline-1-yl)methyl)8-hydroxyquinoline] the IC50 ([1]; Homo sapiens, MRC5, 72 h incubation) was 3.63 ± 0.1 µM.

For `Cc1c(C)c(C)[c-](C)c1C.O=C(O)[C@H]1CCC[NH+]1Cc1cc(Cl)c2cccnc2c1[O-].[Cl-].[Cl-].[Rh+3]` [RhCp*–HQCl-D-Pro, [RhCp*(HQCl-D-Pro)Cl]Cl], the IC50 [2] was 31.5 ± 1.4 µM, the “FHA logKFHA′” value (Ac-Phe–His–Ala-NH2 (FHA)) was 4.4 ± 0.2 and the IC50 ([1]; 72 h incubation) was 82.1 ± 5.1 µM. For the same molecule, the “Trp-214 Quenching logKQ′, Site I” value [3] was 5.6 ± 0.1.

In the case of `Cc1c(C)c(C)[c-](C)c1C.O=C(O)[C@H]1CCCC[NH+]1Cc1cc(Cl)c2cccnc2c1[O-].[Cl-].[Cl-].[Rh+3]` [RhCp*–HQCl-D-hPro, [RhCp*(HQCl-D-hPro)Cl]Cl], the IC50 [2] is reported as 21.5 ± 0.6 µM, the “FHA logKFHA′” value (Ac-Phe–His–Ala-NH2 (FHA)) is reported as 4.5 ± 0.2 and the IC50 ([1]; 72 h incubation) is reported as 37.6 ± 2.3 µM. For the same molecule, the “Trp-214 Quenching logKQ′, Site I” value [3] was 5.6 ± 0.1.

In the case of `Cc1ccc(C(C)C)cc1.O=C(O)[C@H]1CCC[NH+]1Cc1cc(Cl)c2cccnc2c1[O-].[Cl-].[Cl-].[Ru+2]` [RuCym–HQCl-D-Pro, [RuCym(HQCl-D-Pro)Cl]Cl], the IC50 [2] is reported as > 100 µM, the “FHA logKFHA′” value (Ac-Phe–His–Ala-NH2 (FHA)) is reported as 4.4 ± 0.3 and the IC50 ([1]; 72 h incubation) is reported as > 100 µM. The “Trp-214 Quenching logKQ′, Site I” value [3] was 5.5 ± 0.1.

For `Cc1ccc(C(C)C)cc1.O=C(O)[C@H]1CCCC[NH+]1Cc1cc(Cl)c2cccnc2c1[O-].[Cl-].[Cl-].[Ru+2]` [RuCym–HQCl-D-hPro, [RuCym(HQCl-D-hPro)Cl]Cl], the IC50 [2] was > 100 µM, the “FHA logKFHA′” value (Ac-Phe–His–Ala-NH2 (FHA)) was 4.6 ± 0.2 and the IC50 ([1]; 72 h incubation) was > 100 µM. The “Trp-214 Quenching logKQ′, Site I” value [3] was 5.3 ± 0.1.
